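48-hour exposure; five concentrations; linearly interpolated endpoints. GI50 marks 50% less growth.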 Active and inactive are the calls of the source. Cut-off read from the data, not from the text of the source: active = GI50 up to about 1.1 µM and inactive = higher.
How the values were obtained:
Assay in all cases: growth of human tumour cells (NCI), 48 h
Hs-578T = system: Hs-578T
U-251 = system: U-251
LOX IMVI = system: LOX IMVI
OVCAR-3 = system: OVCAR-3
EKVX = system: EKVX
A498 = system: A498
CAKI-1 = system: CAKI-1
RPMI-8226 = system: RPMI-8226
PC-3 = system: PC-3
MDA-MB-231 = system: MDA-MB-231
SK-MEL-5 = system: SK-MEL-5
HT-29 = system: HT-29
SN12C = system: SN12C
SK-MEL-28 = system: SK-MEL-28
SF-295 = system: SF-295
HCT-15 = system: HCT-15
SF-268 = system: SF-268
HCC 2998 = system: HCC 2998
ACHN = system: ACHN
MDA-MB-435 = system: MDA-MB-435
HOP-62 = system: HOP-62
OVCAR-8 = system: OVCAR-8
SK-OV-3 = system: SK-OV-3
HL-60 = system: HL-60
HCT-116 = system: HCT-116
IGROV-1 = system: IGROV-1
786-0 = system: 786-0
SR = system: SR
SW-620 = system: SW-620
HOP-92 = system: HOP-92
KM12 = system: KM12
NCI/ADR-RES = system: NCI/ADR-RES
T47D = system: T47D
OVCAR-5 = system: OVCAR-5
TK-10 = system: TK-10
OVCAR-4 = system: OVCAR-4
DU-145 = system: DU-145
RXF 393 = system: RXF 393
SNB-75 = system: SNB-75
M14 = system: M14
UACC-257 = system: UACC-257
MDA-N = system: MDA-N
A549 = system: A549
NCI-H522 = system: NCI-H522
K562 = system: K562
Malme-3M = system: Malme-3M
MCF7 = system: MCF7
UACC-62 = system: UACC-62
SK-MEL-2 = system: SK-MEL-2
UO-31 = system: UO-31
NCI-H226 = system: NCI-H226
MOLT-4 = system: MOLT-4
CCRF-CEM = system: CCRF-CEM
NCI-H23 = system: NCI-H23
NCI-H460 = system: NCI-H460
COLO 205 = system: COLO 205
BT-549 = system: BT-549
SF-539 = system: SF-539
SNB-19 = system: SNB-19
DMS-273 = system: DMS-273

With `O=C1C(=C(I)I)c2ccccc2-c2ccccc21` the GI50 (Hs-578T) was 7.83 µM (inactive), the GI50 (U-251) was 5.45 µM (inactive) and the GI50 (LOX IMVI) was 2.08 µM (inactive). The GI50 (OVCAR-3) was 1.74 µM (inactive), the GI50 (EKVX) was 3 µM (inactive) and the GI50 (A498) was 16.6 µM (inactive). For the same compound, the GI50 (CAKI-1) was 2.82 µM (inactive), the GI50 (RPMI-8226) was 0.53 µM (active) and the GI50 (PC-3) was 3.71 µM (inactive). For the same compound, the GI50 (MDA-MB-231) was 2.03 µM (inactive), the GI50 (SK-MEL-5) was 5.37 µM (inactive) and the GI50 (HT-29) was 3.21 µM (inactive). For the same compound, the GI50 (SN12C) was 2.05 µM (inactive), the GI50 (SK-MEL-28) was 2.59 µM (inactive) and the GI50 (SF-295) was 16.6 µM (inactive). For the same compound, the GI50 (HCT-15) was 2.47 µM, the GI50 (SF-268) was 6.71 µM (inactive) and the GI50 (HCC 2998) was 2.51 µM (inactive). For the same compound, the GI50 (ACHN) was 2.32 µM (inactive), the GI50 (MDA-MB-435) was 2.24 µM (inactive) and the GI50 (HOP-62) was 11.9 µM (inactive). For the same compound, the GI50 (OVCAR-8) was 2.59 µM (inactive), the GI50 (SK-OV-3) was 14.8 µM (inactive) and the GI50 (HL-60) was 0.998 µM (active). The GI50 (HCT-116) was 2.32 µM (inactive), the GI50 (IGROV-1) was 6.07 µM (inactive) and the GI50 (786-0) was 2.07 µM (inactive). The GI50 (SR) was 2.33 µM (inactive), the GI50 (SW-620) was 1.63 µM (inactive) and the GI50 (HOP-92) was 2.26 µM (inactive). For the same compound, the GI50 (KM12) was 12 µM (inactive), the GI50 (NCI/ADR-RES) was 3.24 µM (inactive) and the GI50 (T47D) was 2.3 µM (inactive). The GI50 (OVCAR-5) was 5.47 µM (inactive), the GI50 (TK-10) was 1.88 µM (inactive) and the GI50 (OVCAR-4) was 2.98 µM (inactive). For the same compound, the GI50 (DU-145) was 3.67 µM (inactive), the GI50 (RXF 393) was 1.68 µM (inactive) and the GI50 (SNB-75) was 2.58 µM (inactive). The GI50 (M14) was 3.02 µM (inactive), the GI50 (UACC-257) was 2.1 µM (inactive) and the GI50 (MDA-N) was 2 µM (inactive). For the same compound, the GI50 (A549) was 16.3 µM (inactive), the GI50 (NCI-H522) was 1.04 µM (active) and the GI50 (K562) was 1.85 µM (inactive). For the same compound, the GI50 (Malme-3M) was 1.64 µM (inactive), the GI50 (MCF7) was 3.59 µM (inactive) and the GI50 (UACC-62) was 4.52 µM (inactive). The GI50 (SK-MEL-2) was 6.31 µM (inactive), the GI50 (UO-31) was 2.1 µM (inactive) and the GI50 (NCI-H226) was 19.7 µM (inactive). The GI50 (MOLT-4) was 0.883 µM (active), the GI50 (CCRF-CEM) was 0.386 µM (active) and the GI50 (NCI-H23) was 5.07 µM (inactive). The GI50 (NCI-H460) was 14.6 µM (inactive), the GI50 (COLO 205) was 1.56 µM (inactive) and the GI50 (BT-549) was 6.12 µM (inactive). For the same compound, the GI50 (SF-539) was 1.34 µM (inactive) and the GI50 (SNB-19) was 14.4 µM (inactive).

In the case of `O=C(c1no[n+]([O-])c1C(=O)c1csc2ccccc12)c1csc2ccccc12`, the GI50 (Hs-578T) is reported as 10.2 µM (inactive), the GI50 (U-251) is reported as 9.95 µM (inactive) and the GI50 (LOX IMVI) is reported as 1.25 µM (inactive). For the same compound, the GI50 (OVCAR-3) was 1.86 µM (inactive), the GI50 (EKVX) was 3.55 µM (inactive) and the GI50 (A498) was 15 µM (inactive). For the same compound, the GI50 (CAKI-1) was 0.82 µM (active), the GI50 (RPMI-8226) was 0.521 µM (active) and the GI50 (PC-3) was 3.13 µM (inactive). The GI50 (MDA-MB-231) was 5.64 µM (inactive), the GI50 (SK-MEL-5) was 12.8 µM (inactive) and the GI50 (HT-29) was 3.64 µM (inactive). The GI50 (SN12C) was 4.37 µM (inactive), the GI50 (SK-MEL-28) was 4.09 µM (inactive) and the GI50 (SF-295) was 14.6 µM (inactive). For the same compound, the GI50 (HCT-15) was 4.57 µM, the GI50 (SF-268) was 6.27 µM (inactive) and the GI50 (HCC 2998) was 4.6 µM (inactive). For the same compound, the GI50 (ACHN) was 4.54 µM (inactive), the GI50 (MDA-MB-435) was 8.93 µM (inactive) and the GI50 (HOP-62) was 9.33 µM (inactive). For the same compound, the GI50 (OVCAR-8) was 3.09 µM (inactive), the GI50 (SK-OV-3) was 16.1 µM (inactive) and the GI50 (HL-60) was 0.0246 µM (active). The GI50 (HCT-116) was 8.85 µM (inactive), the GI50 (IGROV-1) was 1.4 µM (inactive) and the GI50 (786-0) was 0.27 µM (active). For the same compound, the GI50 (SR) was 0.106 µM (active), the GI50 (SW-620) was 2.21 µM (inactive) and the GI50 (HOP-92) was 2.16 µM (inactive). For the same compound, the GI50 (KM12) was 6.95 µM (inactive), the GI50 (NCI/ADR-RES) was 15.6 µM (inactive) and the GI50 (T47D) was 5.96 µM (inactive). The GI50 (OVCAR-5) was 18.3 µM (inactive), the GI50 (TK-10) was 1.99 µM (inactive) and the GI50 (OVCAR-4) was 2.86 µM (inactive). For the same compound, the GI50 (DU-145) was 17.9 µM (inactive), the GI50 (RXF 393) was 7.19 µM (inactive) and the GI50 (SNB-75) was 15.1 µM (inactive). The GI50 (M14) was 9.04 µM (inactive), the GI50 (UACC-257) was 4.92 µM (inactive) and the GI50 (MDA-N) was 8.69 µM (inactive). For the same compound, the GI50 (A549) was 10 µM (inactive), the GI50 (NCI-H522) was 0.652 µM (active) and the GI50 (K562) was 1.52 µM (inactive). For the same compound, the GI50 (Malme-3M) was 3.19 µM (inactive), the GI50 (MCF7) was 4.41 µM (inactive) and the GI50 (UACC-62) was 10.9 µM (inactive). For the same compound, the GI50 (SK-MEL-2) was 6.68 µM (inactive), the GI50 (UO-31) was 0.505 µM (active) and the GI50 (NCI-H226) was 12.9 µM (inactive). For the same compound, the GI50 (MOLT-4) was 0.678 µM (active), the GI50 (CCRF-CEM) was 0.0834 µM (active) and the GI50 (NCI-H23) was 14.1 µM (inactive). The GI50 (NCI-H460) was 13.2 µM (inactive), the GI50 (COLO 205) was 3.06 µM (inactive) and the GI50 (BT-549) was 6.55 µM (inactive). For the same compound, the GI50 (SF-539) was 2.61 µM (inactive) and the GI50 (SNB-19) was 16.9 µM (inactive).

With `NC(=O)c1cn(C2OC(CO)C(O)C2O)c2ncnc(N)c12` (centres undefined) the GI50 (U-251) was 0.07 µM (active), the GI50 (EKVX) was 0.0453 µM (active) and the GI50 (A498) was 0.0724 µM (active). For the same compound, the GI50 (DMS-273) was 0.0213 µM (active), the GI50 (MCF7) was 0.07 µM (active) and the GI50 (UO-31) was 0.07 µM (active).
